# According to ChEMBL document CHEMBL3352522 (Bioorg Med Chem Lett, 2014):
# Active and inactive are the calls of the source. The rule behind the calls is not given here.
# Tests used:
# [1] = molecular target: T1, Peroxisome proliferator-activated receptor alpha (Homo sapiens) (UniProt Q07869); experiment: Activation of human PPARalpha ligand binding domain expressed in COS7 cells assessed as residual activity at 3 uM by luciferase reporter gene assay relative to GW7647; type: cell-based; details: COS-7
# T1 sequence (whole entry): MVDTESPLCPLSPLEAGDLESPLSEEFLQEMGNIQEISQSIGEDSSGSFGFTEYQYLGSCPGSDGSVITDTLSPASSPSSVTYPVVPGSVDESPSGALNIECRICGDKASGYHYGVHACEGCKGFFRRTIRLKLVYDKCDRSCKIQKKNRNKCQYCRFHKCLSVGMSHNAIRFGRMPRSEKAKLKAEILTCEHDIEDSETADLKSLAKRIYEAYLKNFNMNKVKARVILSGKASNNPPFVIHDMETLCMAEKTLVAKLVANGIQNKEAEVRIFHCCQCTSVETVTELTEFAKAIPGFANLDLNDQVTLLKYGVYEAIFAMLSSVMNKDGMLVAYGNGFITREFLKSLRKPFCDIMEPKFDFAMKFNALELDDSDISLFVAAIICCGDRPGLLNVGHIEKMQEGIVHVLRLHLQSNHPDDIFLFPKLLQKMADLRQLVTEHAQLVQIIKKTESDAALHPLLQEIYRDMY
# [2] = molecular target: T2, Peroxisome proliferator-activated receptor delta (Homo sapiens) (UniProt Q03181); experiment: Activation of human PPARbeta ligand binding domain expressed in COS7 cells assessed as residual activity at 3 uM by luciferase reporter gene assay; type: cell-based; details: COS-7
# T2 sequence (whole entry): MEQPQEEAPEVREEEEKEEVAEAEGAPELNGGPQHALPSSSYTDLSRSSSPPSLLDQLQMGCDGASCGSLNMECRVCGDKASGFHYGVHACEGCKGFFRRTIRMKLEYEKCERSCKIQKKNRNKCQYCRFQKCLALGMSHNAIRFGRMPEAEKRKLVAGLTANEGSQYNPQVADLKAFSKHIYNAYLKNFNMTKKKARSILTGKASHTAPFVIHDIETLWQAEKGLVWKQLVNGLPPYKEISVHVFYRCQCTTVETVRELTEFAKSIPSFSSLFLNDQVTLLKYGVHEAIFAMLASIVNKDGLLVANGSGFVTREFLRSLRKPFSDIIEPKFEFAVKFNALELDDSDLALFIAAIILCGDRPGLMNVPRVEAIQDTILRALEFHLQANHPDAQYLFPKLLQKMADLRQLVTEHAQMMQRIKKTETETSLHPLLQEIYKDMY
# [3] = molecular target: T3, Peroxisome proliferator-activated receptor gamma (Homo sapiens, UniProt P37231); experiment: Activation of human PPARgamma ligand binding domain expressed in COS7 cells by luciferase reporter gene assay; type: cell-based, COS-7
# T3 sequence (P37231 whole entry): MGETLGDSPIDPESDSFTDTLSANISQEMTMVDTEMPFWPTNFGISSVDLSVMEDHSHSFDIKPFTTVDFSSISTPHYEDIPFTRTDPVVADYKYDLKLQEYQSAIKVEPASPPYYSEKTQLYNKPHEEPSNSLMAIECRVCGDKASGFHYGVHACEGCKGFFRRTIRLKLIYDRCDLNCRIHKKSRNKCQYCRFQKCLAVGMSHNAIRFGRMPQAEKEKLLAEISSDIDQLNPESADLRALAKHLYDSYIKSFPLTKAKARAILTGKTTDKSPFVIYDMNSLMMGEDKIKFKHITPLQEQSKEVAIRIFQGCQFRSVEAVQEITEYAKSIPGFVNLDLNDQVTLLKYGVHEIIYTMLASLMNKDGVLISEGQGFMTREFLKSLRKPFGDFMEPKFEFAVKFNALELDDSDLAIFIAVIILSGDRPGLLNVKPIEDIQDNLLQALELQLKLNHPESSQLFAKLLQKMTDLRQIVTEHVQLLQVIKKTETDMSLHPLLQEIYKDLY
# [4] = molecular target: T4, Peroxisome proliferator-activated receptor gamma (Homo sapiens) (UniProt P37231); experiment: Activation of human PPARgamma ligand binding domain expressed in COS7 cells by luciferase reporter gene assay relative to pioglitazone; type: cell-based; design: concentration or dose not given beside the values; details: COS-7
# T4 sequence (whole entry): T3 sequence (P37231 whole entry)
# [5] = molecular target: T5, Peroxisome proliferator-activated receptor alpha (Homo sapiens, UniProt Q07869); experiment: Activation of human PPARalpha ligand binding domain expressed in COS7 cells by luciferase reporter gene assay; type: cell-based, COS-7
# T5 sequence (Q07869 whole entry): T1 sequence (whole entry)
# [6] = molecular target: T1, Peroxisome proliferator-activated receptor alpha (Homo sapiens); experiment: Activation of human PPARalpha ligand binding domain expressed in COS7 cells by luciferase reporter gene assay relative to GW7647; type: cell-based; design: concentration or dose not given beside the values; details: COS-7
# [7] = molecular target: T1, Peroxisome proliferator-activated receptor alpha (Homo sapiens); experiment: Activation of human PPARalpha ligand binding domain expressed in COS7 cells assessed as residual activity at 6 uM by luciferase reporter gene assay relative to GW7647; type: cell-based; details: COS-7
# [8] = molecular target: T2, Peroxisome proliferator-activated receptor delta (Homo sapiens); experiment: Activation of human PPARbeta ligand binding domain expressed in COS7 cells assessed as residual activity at 10 uM by luciferase reporter gene assay; type: cell-based; details: COS-7
# [9] = molecular target: T1, Peroxisome proliferator-activated receptor alpha (Homo sapiens); experiment: Activation of human PPARalpha ligand binding domain expressed in COS7 cells assessed as residual activity at 10 uM by luciferase reporter gene assay relative to GW7647; type: cell-based; details: COS-7
# [10] = molecular target: T6, Polyunsaturated fatty acid 5-lipoxygenase (Homo sapiens, UniProt P09917); experiment: Inhibition of 5-LOX in human PMNL cells assessed as reduction in 5-LOX product formation pre-incubated for 15 mins by HPLC method; type: cell-based
# T6 sequence (P09917 whole entry): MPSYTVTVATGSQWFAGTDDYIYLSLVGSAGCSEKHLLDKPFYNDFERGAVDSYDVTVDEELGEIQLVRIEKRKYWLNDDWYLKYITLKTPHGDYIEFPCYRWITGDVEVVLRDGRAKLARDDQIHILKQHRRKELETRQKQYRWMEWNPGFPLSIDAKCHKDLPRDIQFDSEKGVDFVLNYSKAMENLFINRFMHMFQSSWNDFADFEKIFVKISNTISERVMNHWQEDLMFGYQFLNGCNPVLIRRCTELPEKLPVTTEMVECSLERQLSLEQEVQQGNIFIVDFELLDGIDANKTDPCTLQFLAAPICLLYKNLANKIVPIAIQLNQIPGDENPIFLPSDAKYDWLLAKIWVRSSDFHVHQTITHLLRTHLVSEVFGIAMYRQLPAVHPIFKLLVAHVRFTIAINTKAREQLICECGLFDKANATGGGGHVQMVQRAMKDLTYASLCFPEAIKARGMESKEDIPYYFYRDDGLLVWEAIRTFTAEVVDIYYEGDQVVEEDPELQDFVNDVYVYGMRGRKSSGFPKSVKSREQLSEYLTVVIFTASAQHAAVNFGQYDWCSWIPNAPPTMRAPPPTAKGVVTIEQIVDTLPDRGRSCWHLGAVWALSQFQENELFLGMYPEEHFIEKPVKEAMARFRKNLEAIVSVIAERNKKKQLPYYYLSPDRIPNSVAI
# [11] = molecular target: T6, Polyunsaturated fatty acid 5-lipoxygenase; experiment: Inhibition of 5-LOX in human PMNL cells assessed as reduction in 5-LOX product formation pre-incubated for 15 mins by HPLC based cell-free assay
# Prostaglandin E synthase = molecular target: T7, Prostaglandin E synthase (Homo sapiens, UniProt O14684); experiment: Inhibition of mPGES-1 in human A549 cells microsomes assessed as reduction in PGE2 formation by RP-HPLC assay; type: cell-based
# T7 sequence (O14684 whole entry): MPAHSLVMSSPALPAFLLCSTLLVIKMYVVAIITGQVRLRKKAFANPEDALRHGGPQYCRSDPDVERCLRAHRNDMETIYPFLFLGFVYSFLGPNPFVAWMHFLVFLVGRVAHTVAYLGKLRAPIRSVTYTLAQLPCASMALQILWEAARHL
# [12] = molecular target: T4, Peroxisome proliferator-activated receptor gamma (Homo sapiens); experiment: Activation of human PPARgamma ligand binding domain expressed in COS7 cells assessed as residual activity at 10 uM by luciferase reporter gene assay relative to pioglitazone; type: cell-based; details: COS-7
SMILES,EC50 [3] [µM],Activity [4] [%],EC50 [5] [µM],Activity [6] [%],Activity [8],further results
CCCCCCC(Sc1nc(Cl)cc(Nc2nc(-c3ccc4c(c3)CCCC4)cs2)n1)C(=O)O (centres undefined),4.1,107,,,,Activity [1]: 52.9%; Activity [2]: inactive
CCCCCCC(Sc1nc(Cl)cc(Nc2nc3c(s2)CCc2cc(OC)ccc2-3)n1)C(=O)O (centres undefined),3.7,86,5.4,229,,Activity [2]: inactive
CCCCCCC(Sc1nc(Cl)cc(Nc2cccc(C)c2C)n1)C(=O)O (centres undefined),,,,,,IC50 [5]: 1 µM; IC50 [3]: 3.6 µM
CCCCCCC(Sc1nc(Cl)cc(Nc2ccc(-c3ccc(C#N)cc3)cc2)n1)C(=O)O (centres undefined),,,,,,IC50 [5]: 0.19 µM; IC50 [3]: 1.5 µM
CCCCCCC(Sc1nc(Cl)cc(Nc2nc(-c3ccc(Br)cc3)c(C)s2)n1)C(=O)O (centres undefined),3.8,144,3.9,102,,Activity [2]: inactive
CCCCCCC(Sc1nc(Cl)cc(Nc2ccc3ncccc3c2)n1)C(=O)O (centres undefined),,,,,,IC50 [5]: 2.2 µM; IC50 [3]: 3.5 µM
O=C(O)CSc1nc(OCCc2ccccc2)cc(OCCc2ccccc2)n1,,,,,,inhibition [9]: inactive; IC50 [3]: 3.7 µM
O=C(O)CSc1nc(Cl)cc(Nc2nc(-c3ccc(Cl)cc3)cs2)n1,,,,,inactive,Activity [9]: 24.7%; Activity [12]: 63%
Cc1cccc(Nc2cc(Cl)nc(SC(C(=O)O)c3cccc4ccccc34)n2)c1C (centres undefined),,,,,,inhibition [9]: inactive; IC50 [3]: 6.2 µM
CCCCCCC(Sc1nc(Cl)cc(Nc2nc(-c3ccccc3)c(C)s2)n1)C(=O)O (centres undefined),2.3,99,,,inactive,Activity [7]: 23%

# Second part, led by results:
EC50 [3] [µM],Activity [4] [%],EC50 [5] [µM],Activity [6] [%],Activity [8],SMILES,further results
1.3,78,,,inactive,CCCCCCC(Sc1nc(Cl)cc(Nc2nc(-c3ccc4ccccc4c3)cs2)n1)C(=O)O (centres undefined),Activity [7]: 37%
3.4,130,2.9,89.4,inactive,CCCCCCC(Sc1nc(Cl)cc(Nc2nc(-c3ccc([N+](=O)[O-])cc3)cs2)n1)C(=O)O (centres undefined),
3.6,145,,,inactive,CCCCCCC(Sc1nc(Cl)cc(Nc2nc(-c3ccc(F)cc3F)cs2)n1)C(=O)O (centres undefined),Activity [9]: 18%
3.9,95,3.6,51,inactive,CCC(Sc1nc(Cl)cc(Nc2nc(-c3ccc(Cl)cc3)cs2)n1)C(=O)O (centres undefined),
2.9,94,5.7,70,inactive,CCCCCCC(Sc1nc(Cl)cc(Nc2nc(-c3ccc(F)c(F)c3)cs2)n1)C(=O)O (centres undefined),
7.6,136,6.5,57,inactive,CCCCC(Sc1nc(Cl)cc(Nc2nc(-c3ccc(Cl)cc3)cs2)n1)C(=O)O (centres undefined),
6.4,90,6.6,57,inactive,CCCCCCC(Sc1nc(Cl)cc(Nc2nc(-c3ccc(Cl)cc3)cs2)n1)C(=O)O (centres undefined),
,,,,inactive,CCCCCCC(Sc1nc(Cl)cc(Nc2nc(-c3ccc(C(=O)O)cc3)cs2)n1)C(=O)O (centres undefined),IC50 [10]: > 10 µM; IC50 [11]: > 10 µM; IC50 (Prostaglandin E synthase): > 10 µM; Activity [9]: inactive; Activity [12]: inactive
5.7,108,,,inactive,CCCCCCC(Sc1nc(Cl)cc(Nc2nc(-c3ccccc3)cs2)n1)C(=O)O (centres undefined),Activity [7]: 55.4%
7.2,139,8.2,125,inactive,CCCCCCC(Sc1nc(Cl)cc(Nc2nc(-c3ccc(C)cc3)cs2)n1)C(=O)O (centres undefined),
